The text below walks through data of US7098340B2, “Benzyl sulfonamide derivatives” (Warner Lambert Company LLC, priority 2003, dated 2006).

The target in the experiment is T1, androgen receptor (Homo sapiens, UniProt P10275).
T1 sequence (P10275 1-920 Q868H): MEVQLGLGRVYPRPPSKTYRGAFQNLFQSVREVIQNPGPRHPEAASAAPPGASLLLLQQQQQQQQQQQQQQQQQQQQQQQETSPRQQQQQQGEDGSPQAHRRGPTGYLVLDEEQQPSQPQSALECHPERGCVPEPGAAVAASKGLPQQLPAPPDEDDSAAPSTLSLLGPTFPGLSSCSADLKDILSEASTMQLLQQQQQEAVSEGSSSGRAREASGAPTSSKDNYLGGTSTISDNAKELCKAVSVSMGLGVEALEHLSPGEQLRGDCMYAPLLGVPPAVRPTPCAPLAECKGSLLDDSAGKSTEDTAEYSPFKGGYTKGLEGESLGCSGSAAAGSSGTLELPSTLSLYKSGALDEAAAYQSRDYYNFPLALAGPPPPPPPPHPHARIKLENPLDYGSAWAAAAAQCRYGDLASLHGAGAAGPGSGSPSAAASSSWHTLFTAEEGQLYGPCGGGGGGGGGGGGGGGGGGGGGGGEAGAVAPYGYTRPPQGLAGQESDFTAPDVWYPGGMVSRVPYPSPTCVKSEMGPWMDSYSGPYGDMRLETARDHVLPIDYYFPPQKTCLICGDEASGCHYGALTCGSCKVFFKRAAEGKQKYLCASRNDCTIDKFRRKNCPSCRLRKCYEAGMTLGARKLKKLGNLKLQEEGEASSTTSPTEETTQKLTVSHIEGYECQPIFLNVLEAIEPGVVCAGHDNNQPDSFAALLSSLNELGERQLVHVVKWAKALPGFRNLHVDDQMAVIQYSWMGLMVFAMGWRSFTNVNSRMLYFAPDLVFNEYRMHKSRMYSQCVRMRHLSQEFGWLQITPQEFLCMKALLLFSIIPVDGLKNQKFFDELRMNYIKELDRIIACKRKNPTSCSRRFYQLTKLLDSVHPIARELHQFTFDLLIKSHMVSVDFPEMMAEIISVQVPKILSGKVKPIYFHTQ
In words: AR Antagonist Cell Assay (MMTV-luciferase reporter, DHT-stimulated). The class given is cell-based. The following applies: MDA-MB453-MMTV clone 54-19 cells; antagonism of 100 pM DHT, 17 hr, luciferase readout. In a few lines: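 MDA-MB453 cells stably carrying MMTV-ARE-firefly luciferase, in 1% charcoal-treated serum, preincubated 30 min with compound (10 uM or 1 uM) then stimulated with 100 pM DHT for 17 h at 37° C. Luminescence read; result as % inhibition of DHT fold induction.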
For orientation: Reporter assays use an easily measured gene product as a stand-in for the process of interest.

A value given as a limit tells only on which side of the number the result lay.

As a reminder, the IC50 is the midpoint of a concentration-inhibition curve. The compound `O=c1cc(C(F)(F)F)c2cc(Cc3ccc(S(=O)(=O)Nc4cccc(Cc5ccccc5)c4)cc3)ccc2[nH]1` [Example 43, N-(3-Benzylphenyl)-4-(2-oxo-4-trifluoromethyl-1,2-dihydroquinolin-6-ylmethyl)-benzenesulfonamide] registered an IC50 of more than 10 µM.

Compound `CCc1cccc(NS(=O)(=O)c2ccc(Cc3ccc4oc(=O)cc(C(F)(F)F)c4c3)cc2)c1` [Example 119, N-(3-Ethylphenyl)-4-(2-oxo-4-trifluoromethyl-2H-chromen-6-ylmethyl)-benzenesulfonamide] yielded an IC50 of 3.42 µM.

`O=c1cc(C(F)(F)F)c2cc(Cc3ccc(S(=O)(=O)NCc4cc(C(F)(F)F)ccc4F)cc3)ccc2o1` [Example 204, N-(2-Fluoro-5-trifluoromethylbenzyl)-4-(2-oxo-4-trifluoromethyl-2H-chromen-6-ylmethyl)benzene-sulfonamide] came in with an IC50 of more than 10 µM.

Regarding `O=c1cc(C(F)(F)F)c2cc(Cc3ccc(S(=O)(=O)NCCCCc4ccccc4)cc3)ccc2[nH]1` [Example 70, 4-(2-Oxo-4-trifluoromethyl-1,2-dihydroquinolin-6-ylmethyl)-N-(4-phenylbutyl)-benzenesulfonamide], the IC50 is more than 10 µM.

On to `O=c1cc(C(F)(F)F)c2cc(Cc3ccc(S(=O)(=O)NCc4ccc(F)cc4)cc3)ccc2o1` [Example 173, N-(4-Fluorobenzyl)-4-(2-oxo-4-trifluoromethyl-2H-chromen-6-ylmethyl)benzenesulfonamide], for which 7.68 µM corresponded to half-maximal inhibition (IC50).

In turn, `O=c1cc(C(F)(F)F)c2cc(Cc3ccc(S(=O)(=O)Nc4ccc(-n5ccc(C(F)(F)F)n5)cc4)cc3)ccc2[nH]1` [Example 49, 4-(2-Oxo-4-trifluoromethyl-1,2-dihydroquinolin-6-ylmethyl)-N-[4-(3-trifluoromethylpyrazol-1-yl)phenyl]-benzenesulfonamide] registered an IC50 of more than 10 µM.

On to `CN(C1CCCCC1)S(=O)(=O)c1ccc(Cc2ccc3oc(=O)cc(C(F)(F)F)c3c2)cc1` [Example 106, N-Cyclohexyl-N-methyl-4-(2-oxo-4-trifluoromethyl-2H-chromen-6-ylmethyl)-benzenesulfonamide], for which the half-maximal inhibitory concentration (IC50) is more than 10 µM.

For the compound `CCCCN(CCO)S(=O)(=O)c1ccc(Cc2ccc3oc(=O)cc(C(F)(F)F)c3c2)cc1` [Example 100, N-Butyl-N-(2-hydroxyethyl)-4-(2-oxo-4-trifluoromethyl-2H-chromen-6-ylmethyl)-benzenesulfonamide], the concentration for half-maximal inhibition (IC50) was approximately 10 µM.

`CCCCN(C)S(=O)(=O)c1ccc(Cc2ccc3oc(=O)cc(C(F)(F)F)c3c2)cc1` [Example 107, N-Butyl-N-methyl-4-(2-oxo-4-trifluoromethyl-2H-chromen-6-ylmethyl)benzenesulfonamide] showed an IC50 of 3.45 µM.

On to `Cc1cccc(NS(=O)(=O)c2ccc(Cc3ccc4oc(=O)cc(C(F)(F)F)c4c3)cc2)c1` [Example 115, 4-(2-Oxo-4-trifluoromethyl-2H-chromen-6-ylmethyl)-N-m-tolylbenzenesulfonamide], for which half-maximal inhibition (IC50) was put at 2.05 µM.

With `CC(C)CCNS(=O)(=O)c1ccc(Cc2ccc3oc(=O)cc(C(F)(F)F)c3c2)cc1` [Example 159, N-(3-Methylbutyl)-4-(2-oxo-4-trifluoromethyl-2H-chromen-6-ylmethyl)benzenesulfonamide], the IC50 was more than 10 µM.

With `CCCCN(CC)S(=O)(=O)c1ccc(Cc2ccc3oc(=O)cc(C(F)(F)F)c3c2)cc1` [Example 99, N-Butyl-N-ethyl-4-(2-oxo-4-trifluoromethyl-2H-chromen-6-ylmethyl)benzenesulfonamide], the half-maximal inhibitory concentration (IC50) is 4.15 µM. In other words, the single-digit micromolar range.

In the case of `CCOC(=O)C(NS(=O)(=O)c1ccc(Cc2ccc3[nH]c(=O)cc(C(F)(F)F)c3c2)cc1)c1ccccc1` (stereo not shown) [Example 89, [4-(2-Oxo-4-trifluoromethyl-1,2-dihydroquinolin-6-ylmethyl)-benzenesulfonylamino]-phenylacetic acid ethyl ester], the IC50 was more than 10 µM.

With `CC(C)N(C)S(=O)(=O)c1ccc(Cc2ccc3[nH]c(=O)cc(C(F)(F)F)c3c2)cc1` [Example 7, N-Isopropyl-N-methyl-4-(2-oxo-4-trifluoromethyl-1,2-dihydroquinolin-6-ylmethyl)benzenesulfonamide], the half-maximal inhibitory concentration (IC50) is more than 10 µM.

Consider `CCCN(CCO)S(=O)(=O)c1ccc(Cc2ccc3[nH]c(=O)cc(C(F)(F)F)c3c2)cc1` [Example 8, N-(2-Hydroxyethyl)-4-(2-oxo-4-trifluoromethyl-1,2-dihydroquinolin-6-ylmethyl)-N-propylbenzenesulfonamide], for which the IC50 came to 3.25 µM.

On to `O=c1cc(C(F)(F)F)c2cc(Cc3ccc(S(=O)(=O)NC[C@H](O)CO)cc3)ccc2o1` [Example 160, N-(2,3-Dihydroxypropyl)-4-(2-oxo-4-trifluoromethyl-2H-chromen-6-ylmethyl)benzenesulfonamide], for which the 50% inhibitory concentration (IC50) is more than 10 µM.

For the compound `O=c1cc(C(F)(F)F)c2cc(Cc3ccc(S(=O)(=O)Nc4ccc(CO)cc4)cc3)ccc2o1` [Example 124, N-(4-Hydroxymethylphenyl)-4-(2-oxo-4-trifluoromethyl-2H-chromen-6-ylmethyl)-benzenesulfonamide], half-maximal inhibition (IC50) required 2.31 µM.

For `O=c1cc(C(F)(F)F)c2cc(Cc3ccc(S(=O)(=O)Nc4ccccc4Cl)cc3)ccc2[nH]1` [Example 18, N-(2-Chlorophenyl)-4-(2-oxo-4-triftuoromethyl-1,2-dihydroquinolin-6-ylmethyl)-benzenesulfonamide], the concentration for half-maximal inhibition (IC50) came out at 3.16 µM. The IC50 values of the last two compounds are within 1.5-fold of each other.

Compound `O=c1cc(C(F)(F)F)c2cc(Cc3ccc(S(=O)(=O)NCc4c(F)cccc4F)cc3)ccc2o1` [Example 188, N-(2,6-Difluorobenzyl)-4-(2-oxo-4-trifluoromethyl-2H-chromen-6-ylmethyl)benzenesulfonamide] came in with an IC50 of 1.91 µM.

`COc1ccccc1NS(=O)(=O)c1ccc(Cc2ccc3oc(=O)cc(C(F)(F)F)c3c2)cc1` [Example 123, N-(2-Methoxyphenyl)-4-(2-oxo-4-trifluoromethyl-2H-chromen-6-ylmethyl)-benzenesulfonamide] yielded an IC50 of 4.08 µM.

In turn, `O=c1cc(C(F)(F)F)c2cc(Cc3ccc(S(=O)(=O)NC4CCN(Cc5ccccc5)CC4)cc3)ccc2[nH]1` [Example 52, N-(1-Benzylpipendin-4-yl)-4-(2-oxo-4-trifluoromethyl-1,2-dihydroquinolin-6-ylmethyl)-benzenesulfonamide] registered a 50% inhibitory concentration (IC50) of 9.9 µM.

For `O=c1cc(C(F)(F)F)c2cc(Cc3ccc(S(=O)(=O)NC(CCO)c4ccccc4)cc3)ccc2o1` (stereo not shown) [Example 192, N-(3-Hydroxy-1-phenylpropyl)-4-(2-oxo-4-trifluoromethyl-2H-chromen-6-ylmethyl)benzenesulfonamide], the IC50 is 6.52 µM.

Compound `Cc1ccc(F)c(CNS(=O)(=O)c2ccc(Cc3ccc4[nH]c(=O)cc(C(F)(F)F)c4c3)cc2)c1Cl` [Example 84, N-(2-Chloro-6-fluoro-3-methylbenzyl)-4-(2-oxo-4-trifluoromethyl-1,2-dihydroquinolin-6-ylmethyl)-benzenesulfonamide] registered an IC50 of more than 10 µM.

The compound `CCCN(CCO)S(=O)(=O)c1ccc(Cc2ccc3oc(=O)cc(C(F)(F)F)c3c2)cc1` [Example 102, N-(2-Hydroxyethyl)-4-(2-oxo-4-trifluoromethyl-2H-chromen-6-ylmethyl)-N-propylbenzenesulfonamide] registered an IC50 of 2.91 µM.

As for `Cc1ccc2cc(NS(=O)(=O)c3ccc(Cc4ccc5oc(=O)cc(C(F)(F)F)c5c4)cc3)ccc2n1` [Example 139, N-(2-Methylquinolin-6-yl)-4-(2-oxo-4-trifluoromethyl-2H-chromen-6-ylmethyl)-benzenesulfonamide], 2.03 µM corresponded to half-maximal inhibition (IC50).

`O=c1cc(C(F)(F)F)c2cc(Cc3ccc(S(=O)(=O)NCc4cccc(Cl)c4)cc3)ccc2o1` [Example 186, N-(3-Chlorobenzyl)-4-(2-oxo-4-trifluoromethyl-2H-chromen-6-ylmethyl)benzenesulfonamide] came in with a 50% inhibitory concentration (IC50) of more than 10 µM.

Consider `O=C1CCCN1CCCNS(=O)(=O)c1ccc(Cc2ccc3oc(=O)cc(C(F)(F)F)c3c2)cc1` [Example 187, N-[3-(2-Oxopyrrolidin-1-yl)propyl]-4-(2-oxo-4-trifluoromethyl-2H-chromen-6-ylmethyl)benzenesulfonamide], for which it took 3.44 µM to reach half-maximal inhibition (IC50).

`O=c1cc(C(F)(F)F)c2cc(Cc3ccc(S(=O)(=O)Nc4cccc(Cc5ccccc5)c4)cc3)ccc2o1` [Example 149, N-(3-Benzylphenyl)-4-(2-oxo-4-trifluoromethyl-2H-chromen-6-ylmethyl)benzenesulfonamide] gave a 50% inhibitory concentration (IC50) of 4.74 µM. The IC50 values of the last two compounds are within 1.5-fold of each other.
